Experiments:
SARS-CoV-2 [1] = type: cell-based; conditions: cells infected with SARS-CoV-2 (Example 4)
ACE2 [2] = assay: ACE2 expression in A549 cells (RT-PCR/SYBR green PCR, immunoblot); type: cell-based, human; conditions: incubation of 3 h to 24 h
Description: Human epithelial NSLC cell lines A549 were purchased from ATCC (catalogue number: ATCC CCL-185, American Type Culture Collection (ATCC), Manassas, VA). A549 cells were maintained in DMEM containing 10% fetal bovine serum (FBS), 4 mM GlutaMax (Thermo Scientific, Waltham, MA), 500 μg/mL Normocin (InvivoGen, San Diego, CA), 100 units/mL penicillin, and […] streptomycin (Thermo Scientific).
(§1) Gene downregulation of ACE2 has been evaluated with by RT-PCR and SYBR green PCR analyses. Total RNA was extracted from the cells or tissues and purified with the TRIzol reagent according to the manufacturer's protocol (Invitrogen). RNA was reverse transcribed by SuperScript® III reverse transcriptase (Invitrogen). The genes were amplified by with specific primers designed using BLAST alignment. Three housekeeping gene, GAPDH, (3-actin gene, and rare PBGD (porphobilinogen deaminase) gene were combined for normalization. Relative expression levels have been evaluated with the parameter of (ΔCt) of different human cell lines and human GNB cells after treatment with EP2, EP4 or EP2/EP4 agonists at a dose response concentration varying from 10E-2 to 10E2 fold of their respective EC50 of binding activity on each relevant EP receptor.
(§2) Immunoblot analysis on A549 cells treated with different EP2 and/or EP4 agonists doses ranging from 10E-2 to 10E2 fold of their respective binding EC50 is performed by lysing cells as described by Jia et al. (J. Virol., 2005, 79(23), 14614-14621).

ACE2 [3] = assay: ACE2 expression in human primary ciliated cells obtained by gentle nasal brushing (RT-PCR/SYBR green PCR, immunoblot); type: cell-based; conditions: GNC cells, incubation of 3 h to 24 h
Description: Human primary ciliated cells obtained by gentle nasal brushing cells (GNBC cells) are collected from different patient sources, as described by Veit et al. (Nat. Med., 2018, 24(11), 1732-1742). Ciliogenesis is performed on cells plated on to poly-lysine-coated coverslips in 3.5-cm plates at 0.4×10^6 cells per well, allowed to attach for 24 hr, and then serum starved for 48 hr.
as §1, §2

SARS-CoV-2 [4] = type: cell-based; conditions: human primary cells from airways biopsies infected with SARS-CoV-2 (MOI 0.001), 10 μM, day 2 post-infection, vs non-treated cells (FIG. 1)
UREC cells = assay: Microarray transcriptome analysis of UREC cells (Affymetrix Human ClariomD, Reactome/GO analysis); type: cell-based
Description: Cell Culture Immortalized temperature-sensitive URECs are maintained and resuspended in complete RCGM (RCGM medium (0.5% FBS), 1.5% (v/v) certified FBS). Cells were seeded at 116,000 cells/well (350 k cells/cm 2) in 200 μl total volume of complete RCGM medium. Seed in triplicates per each experimental condition. Incubate at 39° C. to stop proliferation for 72 hours. After 72 hrs of cell growth, remove complete RCGM media. Replace with fresh complete RCGM media (2% FBS) containing the drug (at either 0.2, 2, or 10 μM) or vehicle control (media alone or 0.04% DMSO) at the appropriate concentration.
RNA Extraction. Extract RNA using RNeasy Micro Kit (Qiagene) using supplier's procedure. In short, disrupt the cells by adding QIAzol Lysis Reagent. Scratch each well with the pipette tip and pipette to mix. Homogenize the cells by vortexing. Adjust sample volume. Homogenize by passing the lysate through a 20-gauge needle. Precipitate proteins using chloroform solution. Load into a RNeasy MinElute column. Wash and elute following supplier's procedure. Prepare sample at a concentration of 5 ng/μl for quality control and measure by spectrometry (Xpose, Trinean) and confirming RNA as a RIN using capillary electrophoresis (TapeStation, Agilent). The average yield of extraction is 0.4±0.2 μg/100,000 cells (1 well of a 96-well plate).
Microarray data analysis. Affymetrix Human ClariomD were used following manufacturers protocols. Affymetrix Human ClariomD data were normalized using quantile normalization with adjustment based on the median intensity of probes with similar GC content (using Affymetrix Power Tools). Background correction was made using the antigenomic probes. Only probes targeting exons annotated from FAST DB v2016_1 transcripts were selected. Probes were considered as expressed if the DABG p-value ≤0.05 (Detection Above Background p-values were calculated using Affymetrix Power Tools) in more or equal than 60% of samples. Genes were considered as expressed if more or equal than 50% of their probes are expressed Minimum 4 selected probes were required to assess gene expression. If possible only high-specific probes were selected (i.e., not overlapping with repeat regions; not cross-hybridizing; and 40≤GC %≤60). In addition, if possible, only probes targeting constitutive gene regions were selected (i.e., targeting at least 75% of transcripts of a given gene). We performed a paired Student's t-test to compare gene intensities in the different biological replicates.
Analysis at the splicing level was first performed taking into account only exon probes (“EXON” analysis) in order to potentially detect new alternative events that could be differentially regulated (i.e., without taking into account known alternative events). Analysis at the splicing level was also performed by taking into account known patterns (“PATTERN” analysis) using the FAST DB splicing patterns annotation (i.e., for each gene, all possible splicing patterns were defined by comparing exon content of transcripts). All types of alternative events can be analyzed: Alternative first exons, alternative terminal exons, cassette exon, mutually exclusive exons, alternative 5′ donor splice site, alternative 3′-acceptor splice sites, intron retention, internal exon deletion and complex events corresponding to mix of several alternative event categories). “EXON” and “PATTERN” analyses were based on the splicing-index calculation. Results were considered statistically significant for uncorrected p-values ≤0.05 and fold-changes ≥2.0. Finally, significant results from “EXON” and “PATTERN” analyses were merged to obtain a single result list.
Unsupervised analysis. The PCA has been performed using “prcomp” function in R and the 2 first dimensions were plotted. The clustering has been performed using “dist” and “hclust” functions in R, using Euclidean distance and Ward agglomeration method. […]

[5] = 71 genes in term, UREC cells, 2 micromolar PGE1 vs non treated control
[6] = UREC cells, 2 micromolar PGE1 vs non treated control, regulation up

## CC#CCC(C)[C@H](O)/C=C/[C@@H]1[C@H]2C/C(=C/CCCC(=O)O)C[C@H]2C[C@H]1O (stereo partly shown) [Lab2, iloprost]
SARS-CoV-2 [1]
  effect on SARS-CoV-2 infection: significant effect

## CCCCC[C@H](O)CC[C@H]1[C@H](O)CC(=O)[C@@H]1CCCCCCC(=O)O [Lab4, 13,14-dihydro-PGE1]
SARS-CoV-2 [1]
  effect on SARS-CoV-2 infection: significant effect

## O=C(O)COc1cccc(CN(Cc2ccc(-n3cccn3)cc2)S(=O)(=O)c2cccnc2)c1 [Lab1, taprenepag]
ACE2 [2]
  expression of mRNA of ACE2: significantly reduce
  protein level of ACE2: significantly reduce
ACE2 [3]
  expression of mRNA of ACE2: significantly reduce
  protein level of ACE2: significantly reduce
SARS-CoV-2 [4]
  virus replication (viral RNA): able to decrease virus replication
SARS-CoV-2 [1]
  effect on SARS-CoV-2 infection: significant effect

## O=C1CC[C@H](/C=C/[C@@H](O)C(F)(F)c2ccccc2)N1CCCCCCc1nn[nH]n1 [Lab5, L902688]
SARS-CoV-2 [1]
  effect on SARS-CoV-2 infection: significant effect

## CCCCC(C)(C)[C@H](O)/C=C/[C@H]1[C@H](O)CC(=O)[C@@H]1C/C=C\CCCC(=O)O [Lab3, 16-16-dimethyl-PGE2]
SARS-CoV-2 [1]
  effect on SARS-CoV-2 infection: significant effect

## CCCCC[C@H](O)/C=C/[C@H]1[C@H](O)CC(=O)[C@@H]1CCCCCCC(=O)O [PGE1, Prostaglandin E1]
ACE2 [2]
  expression of mRNA of ACE2: significantly reduce
  protein level of ACE2: significantly reduce
ACE2 [3]
  expression of mRNA of ACE2: significantly reduce
  protein level of ACE2: significantly reduce
UREC cells; 5 genes in term, UREC cells, 2 micromolar PGE1 vs non treated control
  Nb Regulated Genes (Up/Down), GO:0009597 detection of virus: 3 (3/0)
UREC cells; 10 genes in term, UREC cells, 2 micromolar PGE1 vs non treated control
  Nb Regulated Genes (Up/Down), GO:0035455 response to interferon-alpha: 4 (4/0)
UREC cells; 14 genes in pathway, UREC cells, 2 micromolar PGE1 vs non treated control
  Nb Regulated Genes (Up/Down), R-HSA-918233 TRAF3-dependent IRF activation pathway: 4 (4/0)
UREC cells; 17 genes in pathway, UREC cells, 2 micromolar PGE1 vs non treated control
  Nb Regulated Genes (Up/Down), R-HSA-168928 RIG-I/MDA5 mediated induction of IFN-alpha/beta pathways: 6 (6/0)
UREC cells; 29 genes in term, UREC cells, 2 micromolar PGE1 vs non treated control
  Nb Regulated Genes (Up/Down), GO:0005164 tumor necrosis factor receptor binding: 6 (5/1)
UREC cells; 33 genes in pathway, UREC cells, 2 micromolar PGE1 vs non treated control
  Nb Regulated Genes (Up/Down), R-HSA-933541 TRAF6 mediated IRF7 activation: 4 (4/0)
UREC cells; 34 genes in pathway, UREC cells, 2 micromolar PGE1 vs non treated control
  Nb Regulated Genes (Up/Down), R-HSA-936440 Negative regulators of RIG-I/MDA5 signaling: 5 (5/0)
UREC cells; 40 genes in term, UREC cells, 2 micromolar PGE1 vs non treated control
  Nb Regulated Genes (Up/Down), GO:0045071 negative regulation of viral genome replication: 11 (11/0)
UREC cells; 64 genes in term, UREC cells, 2 micromolar PGE1 vs non treated control
  Nb Regulated Genes (Up/Down), GO:0060337 type I interferon signaling pathway: 20 (20/0)
UREC cells; 67 genes in pathway, UREC cells, 2 micromolar PGE1 vs non treated control
  Nb Regulated Genes (Up/Down), R-HSA-909733 Interferon alpha/beta signaling: 20 (20/0)
UREC cells; [5]
  Nb Regulated Genes (Up/Down), GO:0060333 interferon-gamma-mediated signaling pathway: 8 (8/0)
  Nb Regulated Genes (Up/Down), GO:0071347 cellular response to interleukin-1: 9 (5/4)
UREC cells; 73 genes in pathway, UREC cells, 2 micromolar PGE1 vs non treated control
  Nb Regulated Genes (Up/Down), R-HSA-1169408 ISG15 antiviral mechanism: 11 (11/0)
UREC cells; 88 genes in pathway, UREC cells, 2 micromolar PGE1 vs non treated control
  Nb Regulated Genes (Up/Down), R-HSA-877300 Interferon gamma signaling: 11 (11/0)
UREC cells; 110 genes in term, UREC cells, 2 micromolar PGE1 vs non treated control
  Nb Regulated Genes (Up/Down), GO:0009615 response to virus: 21 (19/2)
UREC cells; 165 genes in term, UREC cells, 2 micromolar PGE1 vs non treated control
  Nb Regulated Genes (Up/Down), GO:0051607 defense response to virus: 27 (25/2)
UREC cells; 379 genes in term, UREC cells, 2 micromolar PGE1 vs non treated control
  Nb Regulated Genes (Up/Down), GO:0006954 inflammatory response: 22 (12/10)
UREC cells; 421 genes in term, UREC cells, 2 micromolar PGE1 vs non treated control
  Nb Regulated Genes (Up/Down), GO:0006955 immune response: 26 (19/7)
UREC cells; 430 genes in term, UREC cells, 2 micromolar PGE1 vs non treated control
  Nb Regulated Genes (Up/Down), GO:0045087 innate immune response: 30 (27/3)
UREC cells; UREC cells, 2 micromolar PGE1 vs non treated control, regulation down
  Fold-Change BIRC3: 1.67
UREC cells; [6]
  Fold-Change BST2: 1.6
  Fold-Change DDX58: 2.76
  Fold-Change DHX58: 1.55
  Fold-Change EIF2AK2: 1.74
  Fold-Change EIF4E3: 1.72
  Fold-Change FAST DB STABLE ID GSHG0007017 (no gene symbol): 3.58
  Fold-Change FAST DB STABLE ID GSHG0007018 (no gene symbol): 1.93
  Fold-Change GBP2//GBP7: 1.62
  Fold-Change GBP4: 1.86
  Fold-Change HERC5: 2.37
  Fold-Change HLA-DRA: 1.86
  Fold-Change IFI6: 2.51
  Fold-Change IFI27: 1.57
  Fold-Change IFI35: 1.62
  Fold-Change IFIH1: 2.45
  Fold-Change IFIT1: 5.18
  Fold-Change IFIT2: 4.84
  Fold-Change IFIT3: 3.99
  Fold-Change IFITM1: 2.35
  Fold-Change IRF7: 1.88
  Fold-Change ISG15: 1.89
  Fold-Change MIR3614//TRIM25: 1.56
  Fold-Change MX1: 3.68
  Fold-Change MX2: 4.02
  Fold-Change OASL: 2.27
  Fold-Change RSAD2: 3.79
  Fold-Change SAMHD1: 1.89
  Fold-Change STAT1: 1.73
  Fold-Change TNFSF12//TNFSF12-TNFSF13//TNFSF13: 1.62
  Fold-Change TNFSF13B: 1.65
  Fold-Change TRIM14: 2.02
  Fold-Change USP18: 2.26
  Fold-Change XAF1: 1.82
UREC cells; UREC human cells
  expression of a major biological pathway related to viral infection and interferon signaling: significantly modifies
  fold changes of IFN related genes IFIT1, IFIT2 and IFIT3 (overexpressed): > 3
UREC cells; UREC human cells, doses from 0.2 to 10 microM
  induction of IFN related gene across doses tested: consistent

Source: patent publication US20230404988A1, “PROSTAGLANDIN RECEPTOR AGONISTS FOR USE IN THE TREATMENT OF A CORONAVIRUS INFECTION SUCH AS COVID-19” (priority 2020, published 2023)
